Source: US7332522B2, “Liver function protecting or ameliorating agent” (Kyowa Hakko Kogyo Co., Ltd., priority 2001, dated 2008)
Read-outs that look alike come from different tables or passages of the source.

Experiments:
[1] = system: mast cells; settings: at 100 μM; induced by compound 48/80 or calcium ionophore A23187; cited from earlier work
[2] = system: rat skin passive anaphylaxis; settings: oral administration, cited from earlier work
[3] = system: leukocyte; settings: in vitro; cited from earlier work
[4] = iron rhodanate method; cited from earlier work
[5] = system: Galactosamine-induced Rat Hepatopathy; test: Suppression of galactosamine-induced rat hepatopathy, GPT level in serum; type: in vivo, Male Wistar white rats; settings: 15 days, serum 22 h after galactosamine 350 mg/kg i.p., relative to Comparative Example 1 feed = 100%, average ± standard error
Experimental: Male Wistar white rats (150±20 g, purchased from Japan SLC) were kept for at least 3 days under a fixed condition (temperature: 24±2° C., humidity: 60±5%, light and dark interval: 12 hours) for adaptation, and then fed respectively with the feeds produced in Examples 4-8 and the feed produced in Comparative Example 1 for 15 days. On the 14th day, 350 mg/kg of galactosamine (dissolved in physiological saline at a concentration of 35 mg/ml, and adjusted to pH 7.1) was intraperitoneally administered to each rat. Twenty-two hours after the administration of galactosamine, each of the rats was subjected to laparotomy under anesthesia with Nembutal and blood was collected.
Using thus obtained blood samples, blood GPT activity was measured as an indication of a liver function in the following manner. The collected blood was coagulated and separated by centrifugation to obtain a serum. The GPT level in the serum was measured using Fuji Drychem System 3500 (manufactured by Fuji Photo Film Co., Ltd.) with thus obtained serum. The GPT activity of each test group was calculated as the relative value (%) from the value obtained for each Example based on the value obtained for the feed in Comparative Example 1 expressed as 100%. The value is expressed in terms of average value±standard error and the statistical test of significance was carried out by Student's T-test.

[6] = system: rat gastric ulcer induced by ethanol hydrochloride; settings: 75 mg/kg, oral administration; cited from earlier work
[7] = system: hyaluronidase; settings: cited from earlier work
[8] = system: rat liver microsome; settings: cited from earlier work
[9] = 200 mg/kg; cited from earlier work
[10] = system: Staphylococcus epidemidis; settings: at 1000 ppm; cited from earlier work
[11] = system: Staphylococcus aureus; settings: at 1000 ppm; cited from earlier work

For O=C1O[C@H]([C@@H](O)c2ccc(O)cc2)c2cccc(O)c21 [hydramacrophyllol A, reference compound], which “suppression of release of histamine from mast cells” value (“suppression of release of histamine” for short) [1] is on record?
Its value is “not suppressed”.

For O=C1O[C@@H]([C@@H](O)c2ccc(O)cc2)c2cccc(O)c21 [hydramacrophyllol B, reference compound], which “suppression of release of histamine” value [1] is on record?
The value was “not suppressed”.

What does the source list for O=C1OC(c2ccc(O)cc2)Cc2cccc(OC3OC(CO)C(O)C(O)C3O)c21 (stereo not shown) [hydrangenol 8-O-glucoside]?
suppression of rat skin passive anaphylaxis ([2]; 300 and 500 mg/kg): suppress; suppression of release of histamine from mast cells [1]: not suppressed

Which results are given for O=C1OC(c2ccc(O)cc2)Cc2cccc(O)c21 (stereo not shown) [hydrangenol]?
concentration active in differentiation-inducing activity on leukocyte [3]: 300 µM; suppressive activity on linoleic acid oxidation [4]: weak suppressive activity; GPT activity (%) ([5]; feed of Example 7, hydrangenol 0.324% in feed): 64.6 ± 116.5%; GPT activity (%) ([5]; feed of Example 8, hydrangenol 0.108% in feed): 27.8 ± 45.4%; suppression of rat skin passive anaphylaxis ([2]; 500 mg/kg): suppress; suppression of rat gastric ulcer induced by ethanol hydrochloride [6]: do not suppress; suppression of release of histamine from mast cells [1]: not suppressed; hyaluronidase inhibitory activity [7]: hyaluronidase inhibitory activity; suppressive activity on NADPH dependent lipid peroxidation [8]: weak suppressive activity; cholagogic activity [9]: do not exhibit this activity

With COc1ccc(C2Cc3cccc(OC4OC(CO)C(O)C(O)C4O)c3C(=O)O2)cc1O (stereo not shown) [phyllodulcin 8-O-glucoside] as the compound, how does the “suppression of rat skin passive anaphylaxis” value ([2]; 300 and 500 mg/kg) read?
The value was “suppress”.

What about the “suppression of release of histamine” value [1] of the same compound?
Its value is “not suppressed”.

What does the source list for COc1ccc([C@H]2Cc3cccc(O)c3C(=O)O2)cc1O [phyllodulcin]?
proliferation suppressive activity [10]: proliferation suppressive activity; concentration active in differentiation-inducing activity on leukocyte [3]: 300 µM; suppressive activity on linoleic acid oxidation [4]: more potent suppressive activity than α-tocopherol or BHA; GPT activity (%) ([5]; feed of Example 4, phyllodulcin 0.366% in feed): 11.8 ± 18.0%; GPT activity (%) ([5]; feed of Example 5, phyllodulcin 0.122% in feed): 54.7 ± 32.2%; GPT activity (%) ([5]; feed of Example 6, phyllodulcin 0.037% in feed): 52.7 ± 59.9%; suppression of rat skin passive anaphylaxis ([2]; 300 and 500 mg/kg): does not suppress; suppression of rat gastric ulcer induced by ethanol hydrochloride [6]: do not suppress; suppression of release of histamine from mast cells [1]: not suppressed; proliferation suppressive activity [11]: proliferation suppressive activity; suppressive activity on NADPH dependent lipid peroxidation [8]: suppressive activity at a similar level to α-tocopherol; cholagogic activity [9]: do not exhibit this activity

With O=c1oc(-c2ccc(O)c(O)c2)cc2cccc(O)c12 [thunberginol A] as the compound, how does the “concentration active in differentiation-inducing activity on leukocyte” value [3] read?
Its value is 100 µM.

What about the “suppression of rat skin passive anaphylaxis” value ([2]; 300 and 500 mg/kg) of the same compound?
The value was “suppress”.

Which “suppression of rat skin passive anaphylaxis” value ([2]; 300 and 500 mg/kg) does the source give for O=C1O/C(=C\c2ccc(O)c(O)c2)c2cccc(O)c21 [thunberginol F, reference compound] here?
The value was “suppress”.
